Data as given in US20060229276A1, “Use of glycosoaminoglycans for the prevention and treatment of sepsis” (priority 2004, published 2006).
“Also recorded” adds a separate entry of the source. Read-outs that look alike come from different tables or passages of the source.

Experiments:
[1] = tested on: S. aureus strain K2; assay: S. aureus strain K2-induced sepsis in mice (survival, weight, clinical appearance); conditions: for survival versus PBS control: 20 μg/mouse s.c.
Protocol: FIGS. 5A-B show the dose effect of dermatan sulfate on the survival of mice infected with a […] dose S. aureus. S. aureus K2 was grown to log phase and set via a nephelometer to an LD60-80% (30 million cfu per mouse in FIG. 5A; 35 million cfu per mouse in FIG. 5B). Balb/c mice were infected intravenously (0.5 ml) on day zero. Animals were then inoculated subcutaneously with low molecular weight heparin or dermatan sulfate (20 μg/mouse) at two hour and subsequently every twenty-four hours. Control group mice were injected with PBS. Clinical appearance and weight was recorded daily.
FIGS. 6A-B show the dose effect of dermatan sulfate (DS) on mice infected with S. aureus strain K2. S. aureus strain K2 was grown to log phase and set via a nephelometer to a lethal concentration of 40 million cfu per mouse. Balb/c mice were infected intravenously with 40 m cfu's of S. aureus K2. Treatment groups were injected subcutaneously with increasing doses of dermatan sulfate (0.1 to 12.5 mg/kg body weight or 2 to 250 μg of dermatan sulfate) at two hour and subsequently every twenty-four hours. Control group mice were injected subcutaneously with PBS. Clinical appearance and weight were recorded daily. […] In FIG. 6A, n=15 in PBS and n=10 for all doses of dermatan sulfate and in FIG. 6B, n=10 for both the doses of dermatan sulfate.
FIGS. 7A-B show the dose effect of dermatan sulfate (DS) on mice infected with S. aureus strain K2. S. aureus strain K2 was grown to log phase and set via a nephelometer to a lethal concentration of 40 million cfu per mouse. Balb/c mice were infected intravenously with 40 m cfu's of S. aureus K2 on day 0. Treatment groups were injected subcutaneously with increasing doses of dermatan sulfate (0.025 to 25 mg/kg body weight or 0.5 to 500 μg of dermatan sulfate) at two hour and subsequently every twenty-four hours. Control group mice were injected subcutaneously with PBS. Clinical appearance and weight were recorded daily.

[2] = tested on: extrinsic pathway of coagulation; assay: Prothrombin time in plasma of S. aureus K2-infected mice; type: in vivo, Balb/c mice; conditions: 48 hours after infection
Protocol: (§1) FIGS. 8A-B show the effect of dermatan sulfate (DS) on the prothrombin time (FIG. 8A) and partial thromboplastin time (FIG. 8B) of mice treated with dermatan sulfate after the onset of S.aureus-induced sepsis. […] Control group mice were injected subcutaneously with PBS or dermatan sulfate (50 or 500 μg dermatan sulfate per mouse per day). Mice were bled at 48 hours after infection via tail vein. Blood collected in 0.12 M sodium citrate in a 9:1 ratio of blood to citrate. Samples were centrifuged and plasma collected and frozen at −20° C. until use. Plasmas were diluted 1:3 in Owrens buffer for analysis. Prothrombin time (PT) and partial thromboplastin time (PTT) were determined utilizing an XM coagulometer according to manufacturer's instructions.
To ascertain the physiological pathway that is modulated by dermatan sulfate, coagulation profiles of mice treated with low and high concentrations of the compound in the context of S. aureus-induced sepsis was assessed. The extrinsic pathway of coagulation was first evaluated by measuring the prothrombin time (PT) in the plasma of mice forty eight hours after infection with S. aureus and treatment with dermatan sulfate. […] Prothrombin time (PT) was determined utilizing an XM coagulometer according to the manufacturer's instructions.

[3] = tested on: intrinsic pathway of coagulation; assay: Partial thromboplastin time in plasma of S. aureus K2-infected mice; type: in vivo, Balb/c mice; conditions: 48 hours after infection
Protocol: as §1
The effect of dermatan sulfate on the intrinsic pathway of coagulation was determined by measuring the active partial thromboplastin time. Plasma samples from S.aureus infected mice was prepared as described in example 7. Partial thromboplastin time (PTT) was determined utilizing an XM coagulometer according to the manufacturer's instructions.

[4] = tested on: Fibrinogen; assay: Fibrinogen levels in plasma of S. aureus K2-infected mice; type: in vivo, Balb/c mice; conditions: 50-500 μg/day s.c.; 48 hours after infection
Protocol: (§2) Control group mice were injected subcutaneously with PBS or dermatan sulfate (50 or 500 μg dermatan sulfate per mouse per day). Mice were bled at 48 hours after infection via tail vein. Blood collected in 0.12 M sodium citrate in a 9:1 ratio of blood to citrate. Samples were centrifuged and plasma collected and frozen at −20° C. until use. Plasmas were diluted 1:9 in Owrens buffer for analysis. Fibrinogen levels were determined utilizing control standards as measured by an XM coagulometer according to manufacturer's instructions.
Plasma samples from S.aureus infected mice were prepared as described in example 7. Fibrinogen levels were determined utilizing control standards using an XM coagulometer according to manufacturer's instructions.

[5] = tested on: protein C; assay: Protein C levels in plasma of S. aureus K2-infected mice; type: in vivo, Balb/c mice; conditions: 48 hours
Protocol: as §2, with “Balb/c mice were infected intravenously with 40 million cfu's of S. aureus K2 on day zero. […] Control” for “Control”, “Protein C” for “Fibrinogen”, “as percent levels based on” for “determined utilizing control”, “and its ability to prolong partial thromboplastin time. Clotting assay was evaluated using” for “as measured by”
Plasma samples from S.aureus infected mice were prepared as described in Example 7. Protein C in the plasma was determined as percent levels based on standards and their ability to prolong partial thromboplastin time. Clotting assay was evaluated using an XM coagulometer according to manufacturer's instructions.

[6] = Toxicity of high dose dermatan sulfate in non infected control mice; type: in vivo; conditions: 500 μg/day
Protocol: A very high dose of approximately 25 mg/kg body weight is detrimental to the infected mice after the onset of sepsis (FIG. 7A). […] But, a high dose of dermatan sulfate was non-toxic to non infected control mice treated with 500 μg/day of dermatan sulfate.

[7] = tested on: S. aureus strain CYL574; assay: S. aureus strain CYL574-induced septic death in mice (survival); type: in vivo, Balb/c mice
Protocol: Mice in control group were injected intraperitoneally with PBS.
Experiments evaluating the effects of low molecular weight heparin in preventing mortality and/or prolonging survival were conducted in an animal model of S. aureus-induced septic death.

[8] = tested on: S. aureus; type: in vivo, mice; conditions: 100 or 50 μg per mouse
Protocol: The therapeutic index of low molecular weight heparin was also evaluated by using several-fold concentrations in excess of the clinical dose (1 mg/kg or 20 μg/mouse). […] These adverse effects included hematuria, subcutaneous hematomas, and bleeding at the site of injection. The majority of the mice that died in the low molecular weight heparin group were documented with at least one episode of bleeding. […] Insight into the actual cause of bleeding can be gained by examining the coagulation profiles.

[9] = in vivo, cited from earlier work
[10] = 30 million cfu K2, FIG. 5A, n=15
[11] = 35 million cfu K2, FIG. 5B, n=20
[12] = infected mice treated with 50 or 500 μg per mouse s.c.

Question: For chondroitin sulfate A, which “effect of continued daily high doses in infected mice” value ([1]; s.c., continued daily high doses) is on record?
Answer: The value was “detrimental”.

Question: What about the “survival as compared to infected mice treated with PBS” value ([1]; s.c., greater than 10 mg/kg body weight or greater than 200 μg per mouse, FIG. 4) of the same substance?
Answer: Its value is “prolonged survival”.

Question: And the survival ([1]; s.c., very high doses >100 mg/kg body weight, first days after onset of sepsis)?
Answer: The survival was “augmented survival”.

Question: Which “survival versus PBS control” value [1, 10] does the source give for dermatan sulfate here?
Answer: The value was “substantial survival rate”.

Question: What about the “survival versus PBS control” value [1, 11] of the same substance?
Answer: Its value is “dramatic survival rate”.

Question: What about the clinical state ([1]; 500 μg/day s.c., first twenty four to forty eight hours) of the same substance?
Answer: The clinical state was “did clinically well”.

Question: And the “effect of very high dose on infected mice (survival)” value ([1]; approximately 25 mg/kg body weight, 500 μg/day s.c., FIG. 7A)?
Answer: Its value is “detrimental; also recorded: poor survival”.

Question: And the “weight of surviving animals” value ([1]; higher-survival dose versus lower doses, FIG. 6B)?
Answer: The value was “substantially lost more weight”.

Question: And the “protection, high versus lower doses” value ([1]; s.c., high doses >1 mg/Kg versus <1 mg/Kg, FIGS. 6A-7B)?
Answer: The value was “more protective than lower doses”.

Question: And the “survival rates with tapered dose” value ([1]; tapering from 16 mg/kg, halved every day to approximately 0.025 mg/Kg on day 13, FIG. 7B)?
Answer: The value was “optimal survival rates”.

Question: What about the “prothrombin time as compared to infected PBS treated mice” value ([2]; 500 μg/day (high dose) s.c.) of the same substance?
Answer: Its value is “increase the prothrombin time; also recorded: significant increase in prothrombin time”.

Question: And the prothrombin time [2, 12]?
Answer: The prothrombin time was “contracted prothrombin times”.

Question: And the “partial thromboplastin time as compared to infected PBS treated mice” value ([3]; 50 μg/day (low dose) s.c.)?
Answer: Its value is “decrease the partial throboplastin time; also recorded: slight decrease”.

Question: And the “partial thromboplastin time as compared to PBS treated infected mice” value ([3]; 500 μg/day s.c.)?
Answer: Its value is “significantly prolonged”.

Question: What about the partial thromboplastin time [3, 12] of the same substance?
Answer: Its partial thromboplastin time is “prolonged partial thromboplastin time”.

Question: What about the “fibrinogen levels as compared to infected PBS treated mice” value [4] of the same substance?
Answer: The value was “did not exhibit any significant difference”.

Question: And the “protein C levels” value ([5]; 50 μg/day s.c. (low doses, <10 mg/Kg))?
Answer: The value was “decrease protein C levels; also recorded: broad range of protein c levels that were higher and lower”.

Question: What about the “protein C levels” value ([5]; 500 μg/day s.c. (high levels, >20 mg/kg), 20 mg/kg) of the same substance?
Answer: The value was “increase plasma C levels; also recorded: dramatically increase protein C levels”.

Question: And the “toxicity in non infected control mice” value [6]?
Answer: The value was “non-toxic”.

Question: Which survival rate ([7]; high dose 5 mg/kg i.p., after infection, p=0.0017 versus control) does the source give for low molecular weight heparin here?
Answer: The survival rate was 92.8%.

Question: What about the survival rate ([7]; prophylaxis dose 1 mg/kg i.p., 14 days after infection, PBS control 33.3%) of the same substance?
Answer: Its survival rate is 66.7%.

Question: And the “survival versus PBS control” value [1, 10]?
Answer: Its value is “higher rate a survival than the control group”.

Question: And the “survival versus PBS control” value [1, 11]?
Answer: The value was “higher survival rate than the PBS-treated mice”.

Question: And the survival rate ([1]; 1 mg/kg i.p., 72 hr, supra-lethal dose K2, PBS control 20%)?
Answer: Its survival rate is 70%.

Question: And the survival rate ([1]; 1 mg/kg i.p., 96 hr, supra-lethal dose K2, PBS control 0%, p=0.01)?
Answer: The survival rate was 60%.

Question: What about the survival rate ([1]; 5 mg/kg i.p., 96 hours after infection, PBS control 0%) of the same substance?
Answer: The survival rate was 22.2%.

Question: What about the “survival, low versus high doses” value ([1]; s.c., approximately <0.5 mg/kg per day compared with >1 mg/kg per day, FIG. 3) of the same substance?
Answer: Its value is “increased survival”.

Question: And the “survival rates as compared to control mice treated with PBS” value ([8]; data not shown)?
Answer: Its value is “lower survival rates”.

Question: And the “adverse effects (bleeding)” value ([8]; high doses, infected mice)?
Answer: Its value is “signs of bleeding after only 48 hr”.

Question: And the plasma half-life ([9]; iv)?
Answer: Its plasma half-life is 2 to 4 h.

Question: And the plasma half-life ([9]; sc)?
Answer: Its plasma half-life is 3 to 6 h.

Question: What about the “plasma half-life relative to unfractionated heparin” value [9] of the same substance?
Answer: Its value is 2-4 times.
